Measured values from ChEMBL document CHEMBL5038620, “Discovery of a First-in-Class Inhibitor of the Histone Methyltransferase SETD2 Suitable for Preclinical Studies” (ACS Med Chem Lett, 2021).

Tests used:
[1] = Volume of distribution in CD-1 mouse at 1 mg/kg, iv by LC-MS/MS analysis; format: ADME, organism-based; conditions: in vivo
[2] = Clearance in CD-1 mouse at 1 mg/kg, iv by LC-MS/MS analysis; format: ADME, organism-based; conditions: in vivo
[3] = Terminal half life in CD-1 mouse at 1 mg/kg, iv by LC-MS/MS analysis; format: ADME, organism-based; conditions: in vivo, read-out: beta t1/2 (converted)
[4] = Stability in mouse hepatocytes assessed as intrinsic clearance measured upto 60 minutes by LC/MS/MS analysis; format: ADME, cell-based, Hepatocyte; conditions: read-out: CLH
[5] = Stability in human hepatocytes assessed as intrinsic clearance measured upto 120 minutes by LC/MS/MS analysis; format: ADME, cell-based, Hepatocyte; conditions: time >=60 min, read-out: CLH
[6] = Apparent permeability across apical to basal membrane in human Caco-2 cells measured after 2 hrs by LC-MS/MS analysis; format: ADME, cell-based

CLint scaled [4] [mL/min/kg]	CLint scaled [5] [mL/min/kg]	Compound	Vd [1] [L/kg]	clearance [2] [mL/min/kg]	half-life [3] [min]	Papp A→B at 2 h [6] [×10⁻⁶ cm/s]
–	–	CC(=O)N(C)C1CCN(c2cc(F)cc(NC(=O)c3cc4c(F)ccc(C)c4[nH]3)c2)C1 (centres undefined)	1.04	24.2	42	–
235	21.1	CC.Cc1ccc(F)c2cc(C(=O)N[C@@H]3CCC[C@H](N4CC[C@@H](N(C)S(C)(=O)=O)C4)C3)[nH]c12	–	–	–	–
–	–	Cc1ccc(F)c2cc(C(=O)N[C@@H]3CCC[C@H](N4CC[C@H](N(C)S(C)(=O)=O)C4)C3)[nH]c12	1.04	24.2	42	3.2
